The record followed here is ChEMBL document CHEMBL4359905, “Discovery, structural insight, and bioactivities of BY27 as a selective inhibitor of the second bromodomains of BET proteins” (Eur J Med Chem, 2019).

Molecules are shown by their SMILES. pIC50, pKi: −log10 of the molar value. A value given as a limit tells only on which side of the number the result lay.

Assay [1] deals with MV4-11. In words: Antiproliferative activity against human MV4-11 cells assessed as cell growth inhibition after 4 days by CCK8 assay. The assay is classed as functional, cell-based. To be noted: MV4-11, 96 h.
For assay [2], the target named is T1, Bromodomain-containing protein 4 (Homo sapiens, UniProt O60885). The assay is described as follows: Binding affinity to human recombinant BRD4 BD1 (44 to 168 residues) by fluorescence polarization assay.
Assay [3] concerns the target T1, Bromodomain-containing protein 4. The assay is described as follows: Binding affinity to human recombinant BRD4 BD2 (333 to 460 residues) by fluorescence polarization assay.
Assay [4] addresses T2, Bromodomain-containing protein 3 (Homo sapiens, UniProt Q15059). In words: Binding affinity to human recombinant BRD3 BD1 (24 to 144 residues) by fluorescence polarization assay.
Target sequence in this assay (Q15059 whole entry, the tested form may be a part): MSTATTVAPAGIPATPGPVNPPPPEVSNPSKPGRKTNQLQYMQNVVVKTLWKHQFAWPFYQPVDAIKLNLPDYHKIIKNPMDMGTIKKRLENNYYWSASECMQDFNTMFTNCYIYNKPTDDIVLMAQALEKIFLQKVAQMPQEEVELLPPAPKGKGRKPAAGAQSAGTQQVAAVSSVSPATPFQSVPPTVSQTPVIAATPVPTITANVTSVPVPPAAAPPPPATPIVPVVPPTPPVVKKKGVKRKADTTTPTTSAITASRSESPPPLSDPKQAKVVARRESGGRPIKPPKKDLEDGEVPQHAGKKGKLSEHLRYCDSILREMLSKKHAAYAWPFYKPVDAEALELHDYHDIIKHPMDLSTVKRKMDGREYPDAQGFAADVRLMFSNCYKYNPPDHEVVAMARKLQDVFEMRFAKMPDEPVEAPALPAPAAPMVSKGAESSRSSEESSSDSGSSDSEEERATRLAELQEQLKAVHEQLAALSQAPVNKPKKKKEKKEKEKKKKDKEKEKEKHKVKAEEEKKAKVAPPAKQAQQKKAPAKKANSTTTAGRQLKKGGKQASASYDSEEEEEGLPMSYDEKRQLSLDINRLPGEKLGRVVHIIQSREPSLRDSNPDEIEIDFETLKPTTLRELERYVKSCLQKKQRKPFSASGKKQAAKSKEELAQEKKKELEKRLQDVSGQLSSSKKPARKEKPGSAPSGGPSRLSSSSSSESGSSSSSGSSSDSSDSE
Assay [5] has as its target T2, Bromodomain-containing protein 3. The assay is described as follows: Binding affinity to human recombinant BRD3 BD2 (306 to 417 residues) by fluorescence polarization assay.
Target sequence in this assay (Q15059 whole entry, the tested form may be a part): as above
The target of assay [6] is T3, Bromodomain-containing protein 2 (Homo sapiens, UniProt P25440). The assay is described as follows: Binding affinity to human recombinant BRD2 BD1 (72 to 205 residues) by fluorescence polarization assay.
T3 sequence (P25440 whole entry, the tested form may be a part): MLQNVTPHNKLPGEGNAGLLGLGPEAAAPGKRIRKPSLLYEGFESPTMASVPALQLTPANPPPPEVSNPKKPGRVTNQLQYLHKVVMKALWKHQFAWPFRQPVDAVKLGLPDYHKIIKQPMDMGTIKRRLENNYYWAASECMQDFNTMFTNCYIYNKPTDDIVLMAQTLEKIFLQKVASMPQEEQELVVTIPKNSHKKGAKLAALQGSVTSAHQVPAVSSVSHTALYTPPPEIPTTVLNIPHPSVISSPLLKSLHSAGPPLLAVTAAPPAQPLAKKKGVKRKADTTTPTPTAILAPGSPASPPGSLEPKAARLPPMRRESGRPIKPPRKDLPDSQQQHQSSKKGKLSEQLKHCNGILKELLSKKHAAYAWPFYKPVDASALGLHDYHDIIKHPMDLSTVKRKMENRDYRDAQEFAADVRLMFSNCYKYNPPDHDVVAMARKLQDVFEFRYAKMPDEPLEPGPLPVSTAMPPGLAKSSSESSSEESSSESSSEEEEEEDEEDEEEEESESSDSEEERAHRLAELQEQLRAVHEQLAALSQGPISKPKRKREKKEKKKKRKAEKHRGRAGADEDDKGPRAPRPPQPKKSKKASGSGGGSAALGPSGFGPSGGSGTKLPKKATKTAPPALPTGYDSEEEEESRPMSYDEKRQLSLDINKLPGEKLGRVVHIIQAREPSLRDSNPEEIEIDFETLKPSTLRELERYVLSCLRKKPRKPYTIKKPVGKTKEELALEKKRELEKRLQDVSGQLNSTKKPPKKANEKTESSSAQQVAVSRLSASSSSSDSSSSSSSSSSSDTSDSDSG
In assay [7] the target is T3, Bromodomain-containing protein 2. The assay is described as follows: Binding affinity to human recombinant BRD2 BD2 (349 to 460 residues) by fluorescence polarization assay.
A further assay concerns MM1.S. The assay is described as follows: Antiproliferative activity against human MM1S cells assessed as cell growth inhibition after 4 days by CCK8 assay. To be noted: 96 h. The class given is functional, cell-based.
In assay [8] the target is T2, Bromodomain-containing protein 3. In words: Selectivity index, ratio of Ki for human recombinant BRD3 BD1 (24 to 144 residues) to Ki for human recombinant BRD3 BD2 (306 to 417 residues).
Target sequence in this assay (Q15059 2-726 limits assumed): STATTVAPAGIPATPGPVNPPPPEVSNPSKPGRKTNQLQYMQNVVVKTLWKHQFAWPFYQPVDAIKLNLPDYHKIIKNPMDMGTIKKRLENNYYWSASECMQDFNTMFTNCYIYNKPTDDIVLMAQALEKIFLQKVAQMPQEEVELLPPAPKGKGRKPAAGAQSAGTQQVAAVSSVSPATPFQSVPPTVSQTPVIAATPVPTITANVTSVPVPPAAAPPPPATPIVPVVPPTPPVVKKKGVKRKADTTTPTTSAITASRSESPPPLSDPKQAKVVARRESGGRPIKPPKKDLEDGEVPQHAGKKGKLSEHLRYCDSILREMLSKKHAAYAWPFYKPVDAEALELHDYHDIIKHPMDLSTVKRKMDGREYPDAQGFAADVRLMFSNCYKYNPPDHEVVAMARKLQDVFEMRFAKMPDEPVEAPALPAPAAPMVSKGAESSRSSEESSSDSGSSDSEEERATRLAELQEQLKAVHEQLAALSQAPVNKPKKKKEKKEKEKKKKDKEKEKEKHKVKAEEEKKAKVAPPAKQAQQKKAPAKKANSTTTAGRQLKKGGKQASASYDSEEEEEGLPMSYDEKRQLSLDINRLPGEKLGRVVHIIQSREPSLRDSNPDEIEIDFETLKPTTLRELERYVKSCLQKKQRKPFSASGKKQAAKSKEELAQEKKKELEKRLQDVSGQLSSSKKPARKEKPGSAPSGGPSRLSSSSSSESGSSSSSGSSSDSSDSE
Assay [9] has as its system MV4-11. In words: Downregulation of cMyc mRNA expression in human MV4-11 cells after 24 hrs by qRT-PCR analysis. The class given is functional, cell-based.
The subject of assay [10] is MV4-11. The assay is described as follows: Upregulation of p21 mRNA expression in human MV4-11 cells after 24 hrs by qRT-PCR analysis. The assay is classed as functional, cell-based.
The test system of assay [11] is HepG2. The assay is described as follows: Downregulation of ARID5B in human HepG2 cells after 4 hrs by qRT-PCR analysis. The assay is classed as functional, cell-based.
Assay [12] concerns HepG2. In words: Downregulation of G6PC in human HepG2 cells after 4 hrs by qRT-PCR analysis. The class given is functional, cell-based.
Assay [13] relates to HepG2. The assay is described as follows: Downregulation of […] in human HepG2 cells after 4 hrs by qRT-PCR analysis. The class given is functional, cell-based.
For assay [14], the system named is MV4-11. In words: Decrease in c-Myc protein expression in human MV4-11 cells incubated for 24 hrs by western blot analysis. The class given is functional, cell-based.
The test system of assay [15] is MV4-11. The assay is described as follows: Increase in p21 protein expression in human MV4-11 cells incubated for 24 hrs by western blot analysis. The assay is classed as functional, cell-based.

As to `CCn1cc(-c2ccc3c(c2)C(Nc2ccc(Cl)cc2)CCc2nnc(C)n2-3)cn1` (stereo not given), the values for the negative logarithm of the IC50 (pIC50) in the assay with MV4-11 [1] and with MM1.S were 7.02 and 7.20, respectively. Moreover, the pKi in [2] was 7.11; in [3], 7.83; in assay [4] it was 7.00; in assay [5] it was 8.09; in assay [6] it was 6.71; in assay [7] it was 8.05. The Ratio Ki in assay [8] came to 12.

As for `Cc1sc2c(c1C)C(c1ccc(Cl)cc1)=N[C@@H](CC(=O)Nc1ccc(O)cc1)c1nnc(C)n1-2` [BIRABRESIB], the pIC50 with MV4-11 [1] is 7.75; with MM1.S, 7.64. Also, the inhibition entry in the assay with MV4-11 [9], with HepG2 [11], in the assay with HepG2 [12], in the assay on HepG2 [13] and with MV4-11 [14] was “Dose-dependent effect” in each case. The Activity entry with MV4-11 [10] and with MV4-11 [15] was “Dose-dependent effect” throughout.

Consider `Cc1nnc2n1-c1ccc(N)cc1C(Nc1ccc(Cl)cc1)CC2` (stereo not given), for which the negative-log IC50 (pIC50) with MV4-11 [1] was 5.36; in the assay with MM1.S, 5.10. Moreover, the negative logarithm of the Ki (pKi) is 4.96 in [2] and 5.91 in assay [3].

`Cc1nnc2n1-c1ccc(-c3ccc(CCN4CCN(C)CC4)cc3)cc1C(Nc1ccc(Cl)cc1)CC2` (stereo not given): the pIC50 in the assay on MV4-11 [1] was 6.78; in the assay on MM1.S, 6.59. Besides, the pKi in assay [2] was 6.43; in assay [3], 7.26.

As to `Cc1nnc2n1-c1ccc(C3=CCNCC3)cc1C(Nc1ccc(Cl)cc1)CC2` (stereo not given), the pIC50 in the assay with MV4-11 [1] was 5.64; in the assay with MM1.S, 5.24. The negative logarithm of the Ki (pKi) in assay [2] is 5.35; in assay [3], 6.55.

In the case of `Cc1nnc2n1-c1ccc(-c3cnoc3)cc1C(Nc1ccc(Cl)cc1)CC2` (stereo not given), the figures for the pIC50 with MV4-11 [1] and in the assay with MM1.S were 5.18 and 5.11, respectively. Besides, the pKi in assay [2] is 6.63; in [3] it was 7.08.

As for `Cc1nnc2n1-c1ccc(-c3ccnc(N)c3)cc1C(Nc1ccc(Cl)cc1)CC2` (stereo not given), the figures for the pIC50 in the assay on MV4-11 [1] and in the assay with MM1.S were 6.30 and 6.46, respectively. Moreover, the values for the pKi in assay [2] and in [3] were 6.27 and 7.13, respectively.

On to `Cc1nnc2n1-c1ccc(-c3cn[nH]c3)cc1C(Nc1ccc(Cl)cc1)CC2` (stereo not given), for which the pIC50 in the assay with MV4-11 [1] was 7.00; in the assay with MM1.S it was 6.59. For the same compound, the pKi in assay [2] was 6.90; in assay [3], 7.80; in assay [4], 6.94; in [5], 7.86; in assay [6], 6.57; in assay [7], 7.72. For the same compound, in assay [8], the Ratio Ki was found to be 8.

In the case of `Cc1nnc2n1-c1ccc(-c3cnn(C)c3)cc1C(Nc1cccc3ccccc13)CC2` (stereo not given), the negative logarithm of the IC50 (pIC50) with MV4-11 [1] was 6.97; in the assay with MM1.S, 6.27. Besides, the pKi in assay [2] was 6.53; in assay [3], 7.67.

`Cc1nnc2n1-c1ccc(-c3ccc4c(c3)CCC(=O)N4)cc1C(Nc1ccc(Cl)cc1)CC2` (stereo not given): the pIC50 in the assay with MV4-11 [1] was 6.84; in the assay with MM1.S it was 6.88. Besides, the negative-log Ki (pKi) is 6.51 in [2] and 7.16 in assay [3].

For the compound `Cc1nnc2n1-c1ccc(-c3cnc(N)nc3)cc1C(Nc1ccc(Cl)cc1)CC2` (stereo not given), the negative logarithm of the IC50 (pIC50) in the assay with MV4-11 [1] was 6.40; in the assay with MM1.S, 5.99. Further, the pKi is 6.14 in assay [2] and 7.18 in [3].

With `Cc1nnc2n1-c1ccc(Br)cc1C(Nc1ccc(Cl)cc1)CC2` (racemic), the values for the pIC50 in the assay on MV4-11 [1] and in the assay on MM1.S were 5.69 and 5.28, respectively. The pKi in [2] was less than 5.70; in [3] it was 6.13.

On to `Cc1nnc2n1-c1ccc(-c3cnn(C)c3)cc1[C@@H](Nc1ccc(Cl)cc1)CC2`, for which the results for the pIC50 in the assay with MV4-11 [1] and with MM1.S were 5.11 and 5.37, respectively. Besides, the pKi in [2] was 5.30; in [3], 6.02.

Regarding `Cc1nnc2n1-c1ccc(-c3cnn(C)c3)cc1C(Nc1ccc(Cl)cc1)CC2` (stereo not given), the figures for the pIC50 in the assay on MV4-11 [1] and in the assay on MM1.S were 7.07 and 7.19, respectively. Besides, the negative-log Ki (pKi) in [2] is 6.84; in assay [3], 7.83; in assay [4] it was 6.73; in assay [5], 7.95; in [6] it was 6.56; in assay [7], 8.04. The Ratio Ki in assay [8] was found to be 17.

`COc1ccc2c(c1)C(Nc1ccc(Cl)cc1)CCc1nnc(C)n1-2` (stereo not given): the figures for the pIC50 with MV4-11 [1] and with MM1.S were 5.94 and 5.85, respectively. Moreover, the negative-log Ki (pKi) is 5.89 in assay [2] and 6.60 in assay [3].
